Converted amounts (≈) assume the structure as drawn.
Experiments:
[1] = Stability in artificial gastric acid at 1 mg/ml assessed as residual rate after 3 hrs by HPLC analysis relative to control; assay type: ADME; conditions: read-out: Stability
[2] = Aqueous solubility of compound; assay type: physicochemical; conditions: water
[3] = Stability in artificial gastric acid at 1 mg/ml assessed as residual rate after 4 hrs by HPLC analysis relative to control; assay type: ADME; conditions: read-out: Stability
Staphylococcus aureus [4] = test: Antibacterial activity against methicillin-resistant Staphylococcus aureus CLSI-based double dilution method; assay type: functional
[5] = Stability in artificial gastric acid at 1 mg/ml assessed as residual rate after 30 mins by HPLC analysis relative to control; assay type: ADME; conditions: read-out: Stability
[6] = Stability in artificial gastric acid at 1 mg/ml assessed as residual rate after 2 hrs by HPLC analysis relative to control; assay type: ADME; conditions: read-out: Stability
Enterococcus faecium = test: Antibacterial activity against vancomycin-resistant Enterococcus faecium CLSI-based double dilution method; assay type: functional
Staphylococcus aureus [7] = test: Antibacterial activity against methicillin-sensitive Staphylococcus aureus CLSI-based double dilution method; assay type: functional
Enterococcus faecalis = test: Antibacterial activity against linezolid-resistant Enterococcus faecalis CLSI-based double dilution method; assay type: functional
[8] = Stability in artificial gastric acid at 1 mg/ml assessed as residual rate measured immediately by HPLC analysis relative to control; assay type: ADME; conditions: read-out: Stability
[9] = Stability in artificial gastric acid at 1 mg/ml assessed as residual rate after 2.5 hrs by HPLC analysis relative to control; assay type: ADME; conditions: read-out: Stability
[10] = Stability in artificial gastric acid at 1 mg/ml assessed as residual rate after 1 hr by HPLC analysis relative to control; assay type: ADME; conditions: read-out: Stability
Staphylococcus aureus [11] = test: Antibacterial activity against Staphylococcus aureus ATCC 29213 CLSI-based double dilution method; assay type: functional
[12] = Stability in artificial gastric acid at 1 mg/ml assessed as residual rate after 1.5 hrs by HPLC analysis relative to control; assay type: ADME; conditions: read-out: Stability
[13] = Stability in artificial gastric acid at 1 mg/ml assessed as residual rate after 3.5 hrs by HPLC analysis relative to control; assay type: ADME; conditions: read-out: Stability

| Compound | remaining at 3 h, 1 mg/ml [1] [%] | solubility [2] [µg/mL] | remaining at 4 h, 1 mg/ml [3] [%] | MIC (Staphylococcus aureus [4]) [µg/mL] | remaining at 0.5 h, 1 mg/ml [5] [%] | remaining at 2 h, 1 mg/ml [6] [%] | MIC (Enterococcus faecium) [µg/mL] | MIC (Staphylococcus aureus [7]) [µg/mL] | MIC (Enterococcus faecalis) [µg/mL] | remaining at 0 h, 1 mg/ml [8] [%] | remaining at 2.5 h, 1 mg/ml [9] [%] | remaining at 1 h, 1 mg/ml [10] [%] | MIC (Staphylococcus aureus [11]) [µg/mL] | remaining at 1.5 h, 1 mg/ml [12] [%] | remaining at 3.5 h, 1 mg/ml [13] [%] |
| --- | --- | --- | --- | --- | --- | --- | --- | --- | --- | --- | --- | --- | --- | --- | --- |
| CC(=O)NC[C@H]1CN(c2ccc(-c3ccc(/C=N/N4CCN(C)CC4)cc3)c(F)c2)C(=O)O1 | 0 | 71 (≈ 157 µM) | 0 | 0.0675 (≈ 0.149 µM) | 97.5 | 16.1 | 0.0675 (≈ 0.149 µM) | 0.0675 (≈ 0.149 µM) | 0.0675 (≈ 0.149 µM) | 100 | 0 | 40.7 | 0.0675 (≈ 0.149 µM) | 26.3 | 0 |
| CC(=O)NC[C@H]1CN(c2ccc(-c3ccc(/C=C/C(=O)N4CCNCC4)cc3)c(F)c2)C(=O)O1 | 90.9 | 115 (≈ 247 µM) | 88.7 | 0.5 (≈ 1.07 µM) | 94.9 | 91.7 | 0.5 (≈ 1.07 µM) | 0.5 (≈ 1.07 µM) | 0.25 (≈ 0.536 µM) | 100 | 91.5 | 95.2 | 0.5 (≈ 1.07 µM) | 94.9 | 89.7 |
| CC(=O)NC[C@H]1CN(c2ccc(-c3ccc(C(=O)N4CCSCC4)cc3)c(F)c2)C(=O)O1 | – | – | – | 2 (≈ 4.37 µM) | – | – | 2 (≈ 4.37 µM) | 2 (≈ 4.37 µM) | 4 (≈ 8.74 µM) | – | – | – | 1 (≈ 2.19 µM) | – | – |
| CC(=O)NC[C@H]1CN(c2ccc(-c3ccc(/C=C/C(=O)N4CCSCC4)cc3)c(F)c2)C(=O)O1 | – | – | – | 2 (≈ 4.14 µM) | – | – | 2 (≈ 4.14 µM) | 1 (≈ 2.07 µM) | 2 (≈ 4.14 µM) | – | – | – | 1 (≈ 2.07 µM) | – | – |
| CC(=O)NC[C@H]1CN(c2ccc(-c3ccc(/C=C/C(=O)NC4CCCC4)cc3)c(F)c2)C(=O)O1 | – | – | – | 1 (≈ 2.15 µM) | – | – | 1 (≈ 2.15 µM) | 1 (≈ 2.15 µM) | 1 (≈ 2.15 µM) | – | – | – | 1 (≈ 2.15 µM) | – | – |
| CC(=O)NC[C@H]1CN(c2ccc(-c3ccc(/C=C/C(=O)N4CCCCC4)cc3)c(F)c2)C(=O)O1 | – | – | – | 1 (≈ 2.15 µM) | – | – | 1 (≈ 2.15 µM) | 1 (≈ 2.15 µM) | 1 (≈ 2.15 µM) | – | – | – | 1 (≈ 2.15 µM) | – | – |
| CC(=O)NC[C@H]1CN(c2ccc(-c3ccc(C(=O)N4CCNCC4)cc3)c(F)c2)C(=O)O1 | – | – | – | 1 (≈ 2.27 µM) | – | – | 1 (≈ 2.27 µM) | 1 (≈ 2.27 µM) | 1 (≈ 2.27 µM) | – | – | – | 1 (≈ 2.27 µM) | – | – |
| CC(=O)NC[C@H]1CN(c2ccc(-c3ccc(C(=O)N4CCCCC4)cc3)c(F)c2)C(=O)O1 | – | – | – | 1 (≈ 2.28 µM) | – | – | 1 (≈ 2.28 µM) | 1 (≈ 2.28 µM) | 1 (≈ 2.28 µM) | – | – | – | 1 (≈ 2.28 µM) | – | – |
| CC(=O)NC[C@H]1CN(c2ccc(-c3ccc(/C=C/C(=O)N4CCCC4)cc3)c(F)c2)C(=O)O1 | – | – | – | 1 (≈ 2.21 µM) | – | – | 1 (≈ 2.21 µM) | 1 (≈ 2.21 µM) | 1 (≈ 2.21 µM) | – | – | – | 1 (≈ 2.21 µM) | – | – |
| CC(=O)NC[C@H]1CN(c2ccc(-c3ccc(/C=C/C(=O)N4CCC(C)CC4)cc3)c(F)c2)C(=O)O1 | – | – | – | 1 (≈ 2.09 µM) | – | – | 1 (≈ 2.09 µM) | 1 (≈ 2.09 µM) | 1 (≈ 2.09 µM) | – | – | – | 1 (≈ 2.09 µM) | – | – |
| CC(=O)NC[C@H]1CN(c2ccc(-c3ccc(C(=O)NC4CC4)cc3)c(F)c2)C(=O)O1 | – | – | – | 1 (≈ 2.43 µM) | – | – | 1 (≈ 2.43 µM) | 1 (≈ 2.43 µM) | 1 (≈ 2.43 µM) | – | – | – | 1 (≈ 2.43 µM) | – | – |
| CC(=O)NC[C@H]1CN(c2ccc(-c3ccc(C(=O)N4CCOCC4)cc3)c(F)c2)C(=O)O1 | – | – | – | 2 (≈ 4.53 µM) | – | – | 2 (≈ 4.53 µM) | 2 (≈ 4.53 µM) | 2 (≈ 4.53 µM) | – | – | – | 2 (≈ 4.53 µM) | – | – |
| CC(=O)NC[C@H]1CN(c2ccc(-c3ccc(/C=C/C(=O)N4CCOCC4)cc3)c(F)c2)C(=O)O1 | – | – | – | 2 (≈ 4.28 µM) | – | – | 2 (≈ 4.28 µM) | 2 (≈ 4.28 µM) | 4 (≈ 8.56 µM) | – | – | – | 2 (≈ 4.28 µM) | – | – |
| CC(=O)NC[C@H]1CN(c2ccc(-c3ccc(C(=O)N4CCCC4)cc3)c(F)c2)C(=O)O1 | – | – | – | 1 (≈ 2.35 µM) | – | – | 2 (≈ 4.7 µM) | 1 (≈ 2.35 µM) | 2 (≈ 4.7 µM) | – | – | – | 1 (≈ 2.35 µM) | – | – |
| CC(=O)NC[C@H]1CN(c2ccc(-c3ccc(/C=C/C(=O)NC4CC4)cc3)c(F)c2)C(=O)O1 | – | – | – | 1 (≈ 2.29 µM) | – | – | 1 (≈ 2.29 µM) | 1 (≈ 2.29 µM) | 1 (≈ 2.29 µM) | – | – | – | 1 (≈ 2.29 µM) | – | – |
| CC(=O)NC[C@H]1CN(c2ccc(-c3ccc(C(=O)NC4CCCC4)cc3)c(F)c2)C(=O)O1 | – | – | – | 1 (≈ 2.28 µM) | – | – | 1 (≈ 2.28 µM) | 1 (≈ 2.28 µM) | 1 (≈ 2.28 µM) | – | – | – | 1 (≈ 2.28 µM) | – | – |
| CC(=O)NC[C@H]1CN(c2ccc(N3CCOCC3)c(F)c2)C(=O)O1 [LINEZOLID] | – | – | – | 1 (≈ 2.96 µM) | – | – | 2 (≈ 5.93 µM) | 1 (≈ 2.96 µM) | > 16 | – | – | – | 1 (≈ 2.96 µM) | – | – |
| CC(=O)NC[C@H]1CN(c2ccc(-c3ccc(CNCc4cnn[nH]4)cc3)c(F)c2)C(=O)O1 [RADEZOLID] | – | – | – | 0.5 (≈ 1.14 µM) | – | – | 0.5 (≈ 1.14 µM) | 0.5 (≈ 1.14 µM) | 0.5 (≈ 1.14 µM) | – | – | – | 0.5 (≈ 1.14 µM) | – | – |
